# Target: Transient receptor potential cation channel subfamily V member 1 (Homo sapiens, UniProt Q8NER1)
# Assay: Displacement of [3H]RTX binding from vanilloid receptor
# Transient receptor potential cation channel subfamily V member 1, sequence (Q8NER1 whole entry): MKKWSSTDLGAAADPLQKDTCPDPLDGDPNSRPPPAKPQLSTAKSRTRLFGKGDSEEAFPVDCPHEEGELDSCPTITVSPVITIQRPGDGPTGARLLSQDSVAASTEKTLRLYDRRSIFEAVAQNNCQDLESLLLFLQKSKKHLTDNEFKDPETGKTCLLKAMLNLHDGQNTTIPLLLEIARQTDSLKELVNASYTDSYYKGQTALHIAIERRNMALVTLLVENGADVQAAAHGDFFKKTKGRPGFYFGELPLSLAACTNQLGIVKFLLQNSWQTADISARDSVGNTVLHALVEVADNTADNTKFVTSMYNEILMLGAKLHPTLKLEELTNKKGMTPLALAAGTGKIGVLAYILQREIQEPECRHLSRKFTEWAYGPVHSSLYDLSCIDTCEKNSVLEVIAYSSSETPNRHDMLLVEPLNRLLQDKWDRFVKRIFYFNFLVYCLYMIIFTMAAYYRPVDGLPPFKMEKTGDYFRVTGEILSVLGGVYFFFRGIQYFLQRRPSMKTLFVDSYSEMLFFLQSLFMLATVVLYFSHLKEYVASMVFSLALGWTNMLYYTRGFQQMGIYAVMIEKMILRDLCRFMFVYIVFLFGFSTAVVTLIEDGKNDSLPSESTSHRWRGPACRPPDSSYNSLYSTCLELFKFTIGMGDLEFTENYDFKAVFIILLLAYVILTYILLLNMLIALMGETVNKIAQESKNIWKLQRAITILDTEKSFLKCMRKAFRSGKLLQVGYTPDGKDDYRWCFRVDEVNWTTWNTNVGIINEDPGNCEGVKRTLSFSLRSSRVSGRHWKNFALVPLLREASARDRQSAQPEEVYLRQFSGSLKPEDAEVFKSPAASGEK
row,Compound,Ki [nM]
1,C=C(C)[C@]12C[C@@H](C)[C@@]34OC(Cc5ccccc5)(O[C@@H]1[C@@H]3C=C(CNC(=S)NCc1ccc(O)c(OC)c1)C[C@]1(O)C(=O)C(C)=C[C@@H]41)O2,149
2,C=C(C)[C@]12C[C@@H](C)[C@@]34OC(Cc5ccccc5)(O[C@@H]1[C@@H]3C=C(C/N=C(\S)Nc1ccc(O)c(OC)c1)C[C@]1(O)C(=O)C(C)=C[C@@H]41)O2,66.1
3,"C=C(C)[C@]12C[C@@H](C)[C@@]34O[C@](Cc5ccccc5)(O[C@@H]1[C@@H]3C=C(COC(=O)Cc1ccc(O)c(OC)c1)C[C@]1(O)C(=O)C(C)=CC41)O2 (single isomer, unassigned) [RESINIFERATOXIN]",23.1
